From patent US20070010897A1, “Immunochemically modified and sterilized xenografts and allografts” (priority 2005, published 2007)

Assays:
[1] = tested on: Reovirus 3; experiment: Viral inactivation test, Reovirus 3; settings: Reovirus 3 (NEnv./RNA); single process step (glutaraldehyde or E-beam 17.8 kGy)
[2] = tested on: Porcine Parvovirus; experiment: Viral inactivation test, Porcine Parvovirus; settings: Porcine Parvovirus (NEnv./DNA); single process step (glutaraldehyde or E-beam 17.8 kGy)

## O=CCCCC=O [Glutaraldehyde, glutaraldehyde]
[1]
  Log10 Reduction: 4.24 Log10
[2]
  Log10 Reduction: 1.91 Log10
